Source: publication PMC9833666, “Designing and identifying β-hairpin peptide macrocycles with antibiotic potential” (Science Advances, 2023)
Bridge positions count the residues as written; N and C are the ends. Peptide text beside a SMILES is read from it.

Test system: Escherichia coli W3110
Format: cell-based
Conditions: for Ec W3110 MIC MH: E. coli W3110, MH medium; for Ec W3110 MIC RPMI: E. coli W3110, RPMI medium

| SMILES | Ec W3110 MIC MH | Ec W3110 MIC RPMI | W3110 MIC MH | W3110 MIC RPMI |
| --- | --- | --- | --- | --- |
| CC[C@H](C)[C@@H]1NC(=O)[C@H](CCCNC(=N)N)NC(=O)[C@H](C(C)C)NC(=O)[C@@H](N)CSSC[C@@H](C(=O)O)NC(=O)[C@H](C(C)C)NC(=O)[C@H](CCC(=O)O)NC(=O)[C@H](CC(C)C)NC(=O)[C@H](CO)NC(=O)[C@H](C(C)C)NC(=O)[C@H](CCCCN)NC(=O)[C@H](C(C)C)NC(=O)[C@H](CCCNC(=N)N)NC(=O)[C@H](CCCNC(=N)N)NC(=O)[C@H](CCCNC(=N)N)NC(=O)[C@H](CCCNC(=N)N)NC(=O)[C@H](CC(N)=O)NC(=O)[C@H](CC(N)=O)NC(=O)[C@H](CC(C)C)NC(=O)[C@H](CCCNC(=N)N)NC1=O [SySA-37] (H-CVRIRLNNRRRRVKVSLEVC-OH; disulfide 1-20; N-terminus and C-terminus assumed) | 32 µg/mL | 8 µg/mL | 32 µg/mL | 8 µg/mL |
| CC[C@H](C)[C@@H]1NC(=O)[C@H](CCCNC(=N)N)NC(=O)[C@H](C(C)C)NC(=O)[C@@H](N)CSSC[C@@H](C(=O)O)NC(=O)[C@H](C(C)C)NC(=O)[C@H](CCC(N)=O)NC(=O)[C@H](CC(C)C)NC(=O)[C@H](CO)NC(=O)[C@H](C(C)C)NC(=O)[C@H](CCCCN)NC(=O)[C@H](C(C)C)NC(=O)CNC(=O)[C@H](CO)NC(=O)[C@H](CCCNC(=N)N)NC(=O)[C@H](CCCNC(=N)N)NC(=O)[C@H](CC(N)=O)NC(=O)[C@H](CC(N)=O)NC(=O)[C@H](C(C)C)NC(=O)[C@H](CCCNC(=N)N)NC1=O [SySA-38] (H-CVRIRVNNRRSGVKVSLQVC-OH; disulfide 1-20; N-terminus and C-terminus assumed) | 256 µg/mL | 8 µg/mL | 256 µg/mL | 8 µg/mL |
| CC[C@H](C)[C@@H]1NC(=O)[C@H](CCCNC(=N)N)NC(=O)[C@H](C(C)C)NC(=O)[C@@H](N)CSSC[C@@H](C(=O)O)NC(=O)[C@H](C(C)C)NC(=O)[C@H](CCC(N)=O)NC(=O)[C@H](CC(C)C)NC(=O)[C@H](CO)NC(=O)[C@H](C(C)C)NC(=O)[C@H](CCCCN)NC(=O)[C@H](CC(C)C)NC(=O)CNC(=O)[C@H](CCCNC(=N)N)NC(=O)[C@H](CCCNC(=N)N)NC(=O)[C@H](CCCNC(=N)N)NC(=O)[C@H](CC(N)=O)NC(=O)[C@H](CC(N)=O)NC(=O)[C@H](CC(C)C)NC(=O)[C@H](CCCNC(=N)N)NC1=O [SySA-40] (H-CVRIRLNNRRRGLKVSLQVC-OH; disulfide 1-20; N-terminus and C-terminus assumed) | 32 µg/mL | 8 µg/mL | 32 µg/mL | 8 µg/mL |
| CC(C)C[C@@H]1NC(=O)CNC(=O)[C@H](CCCNC(=N)N)NC(=O)[C@H](CCCNC(=N)N)NC(=O)[C@H](CCCNC(=N)N)NC(=O)[C@H](CC(N)=O)NC(=O)[C@H](CC(N)=O)NC(=O)[C@H](CC(C)C)NC(=O)[C@H](CCCNC(=N)N)NC(=O)[C@H](C(C)C)NC(=O)[C@H](CCCNC(=N)N)NC(=O)[C@H](C(C)C)NC(=O)[C@@H](N)CSSC[C@@H](C(=O)O)NC(=O)[C@H](C(C)C)NC(=O)[C@H](CCC(N)=O)NC(=O)[C@H](CC(C)C)NC(=O)[C@H]([C@@H](C)O)NC(=O)[C@H](C(C)C)NC(=O)[C@H](CCCCN)NC1=O [SySA-45] (H-CVRVRLNNRRRGLKVTLQVC-OH; disulfide 1-20; N-terminus and C-terminus assumed) | 256 µg/mL | 32 µg/mL | 256 µg/mL | 32 µg/mL |
| CC[C@H](C)[C@@H]1NC(=O)[C@H](CCCNC(=N)N)NC(=O)[C@H](C(C)C)NC(=O)[C@@H](N)CSSC[C@@H](C(=O)O)NC(=O)[C@H](C(C)C)NC(=O)[C@H](CCC(N)=O)NC(=O)[C@H](CC(C)C)NC(=O)[C@H]([C@@H](C)O)NC(=O)[C@H](C(C)C)NC(=O)[C@H](CCCCN)NC(=O)[C@H](C(C)C)NC(=O)[C@H](CCCNC(=N)N)NC(=O)[C@H](CCCNC(=N)N)NC(=O)CNC(=O)CNC(=O)[C@H](CC(N)=O)NC(=O)[C@H](CC(N)=O)NC(=O)[C@H](CC(C)C)NC(=O)[C@H](CCCNC(=N)N)NC1=O [SySA-53] (H-CVRIRLNNGGRRVKVTLQVC-OH; disulfide 1-20; N-terminus and C-terminus assumed) | 32 µg/mL | 32 µg/mL | 32 µg/mL | 32 µg/mL |
| CC[C@H](C)[C@@H]1NC(=O)[C@H](CCCNC(=N)N)NC(=O)[C@H](C(C)C)NC(=O)[C@@H](N)CSSC[C@@H](C(=O)O)NC(=O)[C@H](C(C)C)NC(=O)[C@H](CCC(N)=O)NC(=O)[C@H](C(C)C)NC(=O)[C@H](CO)NC(=O)[C@H](C(C)C)NC(=O)[C@H](CCCCN)NC(=O)[C@H](C(C)C)NC(=O)[C@H](CCCNC(=N)N)NC(=O)[C@H](CCCNC(=N)N)NC(=O)[C@H](CCCNC(=N)N)NC(=O)[C@H](CCCNC(=N)N)NC(=O)[C@H](CC(N)=O)NC(=O)[C@H](CC(N)=O)NC(=O)[C@H](C(C)C)NC(=O)[C@H](CCCNC(=N)N)NC1=O [SySA-62] (H-CVRIRVNNRRRRVKVSVQVC-OH; disulfide 1-20; N-terminus and C-terminus assumed) | 32 µg/mL | 16 µg/mL | 32 µg/mL | 16 µg/mL |

The remaining lines, values ahead:

| Ec W3110 MIC MH | Ec W3110 MIC RPMI | W3110 MIC MH | W3110 MIC RPMI | SMILES |
| --- | --- | --- | --- | --- |
| 256 µg/mL | 64 µg/mL | 256 µg/mL | 64 µg/mL | CC[C@H](C)[C@@H]1NC(=O)[C@H](CCCNC(=N)N)NC(=O)[C@H](C(C)C)NC(=O)[C@H](CCCNC(=N)N)NC(=O)[C@H](CO)NC(=O)[C@H](CCCNC(=N)N)NC(=O)[C@H](CCCNC(=N)N)NC(=O)[C@H](CC(N)=O)NC(=O)[C@H](CC(N)=O)NC(=O)[C@H](C(C)C)NC(=O)[C@H](CCCNC(=N)N)NC(=O)[C@H]([C@@H](C)CC)NC(=O)[C@H]([C@@H](C)O)NC(=O)[C@H](C(C)C)NC(=O)[C@@H](N)CSSC[C@@H](C(=O)O)NC(=O)[C@H](C(C)C)NC(=O)[C@H](CCC(N)=O)NC(=O)[C@H](CC(C)C)NC(=O)[C@H](CO)NC1=O [SySA-63] (H-CVTIRVNNRRSRVRISLQVC-OH; disulfide 1-20; N-terminus and C-terminus assumed) |
| 64 µg/mL | 16 µg/mL | 64 µg/mL | 16 µg/mL | CC[C@H](C)[C@@H]1NC(=O)[C@H](CCCCN)NC(=O)[C@H](C(C)C)NC(=O)[C@H](CCCNC(=N)N)NC(=O)[C@H](CCCNC(=N)N)NC(=O)[C@H](CCCNC(=N)N)NC(=O)[C@H](CCCNC(=N)N)NC(=O)[C@H](CC(N)=O)NC(=O)[C@H](CC(N)=O)NC(=O)[C@H](CC(C)C)NC(=O)[C@H](CCCNC(=N)N)NC(=O)[C@H](C(C)C)NC(=O)[C@H](CCCNC(=N)N)NC(=O)[C@H](C(C)C)NC(=O)[C@@H](N)CSSC[C@@H](C(=O)O)NC(=O)[C@H](C(C)C)NC(=O)[C@H](CCC(=O)O)NC(=O)[C@H](C(C)C)NC(=O)[C@H](CO)NC1=O [SySA-65] (H-CVRVRLNNRRRRVKISVEVC-OH; disulfide 1-20; N-terminus and C-terminus assumed) |
| – | – | 128 µg/mL | 32 µg/mL | CC[C@H](C)[C@@H]1NC(=O)[C@H](CCCNC(=N)N)NC(=O)[C@H](C(C)C)NC(=O)[C@@H](N)CSSC[C@@H](C(=O)O)NC(=O)[C@H](C(C)C)NC(=O)[C@H](CCC(N)=O)NC(=O)[C@H](C(C)C)NC(=O)[C@H](CO)NC(=O)[C@H](C(C)C)NC(=O)[C@H](CCCCN)NC(=O)[C@H](C(C)C)NC(=O)CNC(=O)[C@H](CCCNC(=N)N)NC(=O)[C@H](CCCNC(=N)N)NC(=O)[C@H](CCCNC(=N)N)NC(=O)[C@H](CC(N)=O)NC(=O)[C@H](CC(N)=O)NC(=O)[C@H](CC(C)C)NC(=O)[C@H](CCCNC(=N)N)NC1=O [SySA-66] (H-CVRIRLNNRRRGVKVSVQVC-OH; disulfide 1-20) |
| 16 µg/mL | 32 µg/mL | 16 µg/mL | 32 µg/mL | CC(C)C[C@@H]1NC(=O)[C@H](CCCNC(=N)N)NC(=O)[C@H](CCCNC(=N)N)NC(=O)[C@H](CCCNC(=N)N)NC(=O)CNC(=O)[C@H](CC(N)=O)NC(=O)[C@H](CC(N)=O)NC(=O)[C@H](CC(C)C)NC(=O)[C@H](CCCNC(=N)N)NC(=O)[C@H](C(C)C)NC(=O)[C@H](CCCNC(=N)N)NC(=O)[C@H](CC(C)C)NC(=O)[C@@H](N)CSSC[C@@H](C(=O)O)NC(=O)[C@H](C(C)C)NC(=O)[C@H](CCC(N)=O)NC(=O)[C@H](CC(C)C)NC(=O)[C@H](CO)NC(=O)[C@H](C(C)C)NC(=O)[C@H](CCCCN)NC1=O [SySA-71] (H-CLRVRLNNGRRRLKVSLQVC-OH; disulfide 1-20; N-terminus and C-terminus assumed) |
| 32 µg/mL | 8 µg/mL | 32 µg/mL | 8 µg/mL | CC[C@H](C)[C@@H]1NC(=O)[C@H](CCCNC(=N)N)NC(=O)[C@H](CC(C)C)NC(=O)CNC(=O)[C@H](CCCNC(=N)N)NC(=O)[C@H](CCCNC(=N)N)NC(=O)[C@H](CCCNC(=N)N)NC(=O)[C@H](CC(N)=O)NC(=O)[C@H](CC(N)=O)NC(=O)[C@H](CC(C)C)NC(=O)[C@H](CCCNC(=N)N)NC(=O)[C@H]([C@@H](C)CC)NC(=O)[C@H](CCCNC(=N)N)NC(=O)[C@H](CC(C)C)NC(=O)[C@@H](N)CSSC[C@@H](C(=O)O)NC(=O)[C@H](C(C)C)NC(=O)[C@H](CCC(N)=O)NC(=O)[C@H](CC(C)C)NC(=O)[C@H](CO)NC1=O [SySA-72] (H-CLRIRLNNRRRGLRISLQVC-OH; disulfide 1-20; N-terminus and C-terminus assumed) |
| 32 µg/mL | 8 µg/mL | 32 µg/mL | 8 µg/mL | CC[C@H](C)[C@@H]1NC(=O)[C@H](CCCNC(=N)N)NC(=O)[C@H](CC(C)C)NC(=O)CNC(=O)[C@H](CCCNC(=N)N)NC(=O)[C@H](CCCNC(=N)N)NC(=O)[C@H](CCCNC(=N)N)NC(=O)[C@H](CC(N)=O)NC(=O)[C@H](CC(N)=O)NC(=O)[C@H](CC(C)C)NC(=O)[C@H](CCCNC(=N)N)NC(=O)[C@H](C(C)C)NC(=O)[C@H](CCCNC(=N)N)NC(=O)[C@H](CC(C)C)NC(=O)[C@@H](N)CSSC[C@@H](C(=O)O)NC(=O)[C@H](C(C)C)NC(=O)[C@H](CCC(N)=O)NC(=O)[C@H](CC(C)C)NC(=O)[C@H](CO)NC1=O [SySA-73] (H-CLRVRLNNRRRGLRISLQVC-OH; disulfide 1-20; N-terminus and C-terminus assumed) |
